target: PRC2 containing wt EZH2 (Homo sapiens (Human), UniProt Q15910); test: EZH2 biochemical assay (IC50), 3H-SAM incorporation into biotinylated H3 peptide; details: 30 pM PRC2 containing wt EZH2; 3-5 h pre-incubation; read-out: EZH2 (IC50)
Description: EZH2 biochemical assay (IC50): Compound potencies were assessed through incorporation of ^3H-SAM into a biotinylated H3 peptide. Specifically, 30 pM PRC2 containing wt EZH2 (pentameric complex prepared in-house) was pre-incubated with 450 nM SAM, 450 nM ^3H-SAM, 2 μM H3K27me3 activating peptide (H2N-[…](Kme3)[…]-amide) and compounds (as 10 point duplicate dose response titrations in DMSO, final assay 0.8% DMSO (v/v)) for 3-5 h in 50 mM Tris (pH 8.5), 1 mM DTT, 0.07 mM Brij-35, 0.1% BSA, and 0.8% DMSO in a total volume of 12.5 μl. Reaction was initiated with biotinylated H3 substrate peptide (H2N-[…](Kme1)[…]-NTPEGBiot) as a 2 μM stock in 12.5 μl of buffer and allowed to react at room temperature for 18-22 h. Quenching was accomplished by addition of 20 μl of STOP solution (50 mM Tris (pH 8.5), 200 mM EDTA, 2 mM SAH). 35 μl of the quenched solution was transferred to streptavidin coated FlashPlates (PerkinElmer), incubated 1-2 h, washed, and read in a TopCount Reader (PerkinElmer). IC50s were calculated in Genedata Screener using non-linear least square four parameter fits, where the four parameters were IC50, Hill slope, pre-transitional baseline (0% INH), and post-transitional baseline (100% INH).
IC50 values are reported as follows: “A” indicates an IC50 value of less than 0.5 nM; “B” indicates an IC50 value of 0.5 nM to 5 nM; “C” indicates an IC50 value of greater than 5 nM for each enzyme; and “ND” is not determined.

PRC2 containing wt EZH2, sequence (Q15910 whole entry): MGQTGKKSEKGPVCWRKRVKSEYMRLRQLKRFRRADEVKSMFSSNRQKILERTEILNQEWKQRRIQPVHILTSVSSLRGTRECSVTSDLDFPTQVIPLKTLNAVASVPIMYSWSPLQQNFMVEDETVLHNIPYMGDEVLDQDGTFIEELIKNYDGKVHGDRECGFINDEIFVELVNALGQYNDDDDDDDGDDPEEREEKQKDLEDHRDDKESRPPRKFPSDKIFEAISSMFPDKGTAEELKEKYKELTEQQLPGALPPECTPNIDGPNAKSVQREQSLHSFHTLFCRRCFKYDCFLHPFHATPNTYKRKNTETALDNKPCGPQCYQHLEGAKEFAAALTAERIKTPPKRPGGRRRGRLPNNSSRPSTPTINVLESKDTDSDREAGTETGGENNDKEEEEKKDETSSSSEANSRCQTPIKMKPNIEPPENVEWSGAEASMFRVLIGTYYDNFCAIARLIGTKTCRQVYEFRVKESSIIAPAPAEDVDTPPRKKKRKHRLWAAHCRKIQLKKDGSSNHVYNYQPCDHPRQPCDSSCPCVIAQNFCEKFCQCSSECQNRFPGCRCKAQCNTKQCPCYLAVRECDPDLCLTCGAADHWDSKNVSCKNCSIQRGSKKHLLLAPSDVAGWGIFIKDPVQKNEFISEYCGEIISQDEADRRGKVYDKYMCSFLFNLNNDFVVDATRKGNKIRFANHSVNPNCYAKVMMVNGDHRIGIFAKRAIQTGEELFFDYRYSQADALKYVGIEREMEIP
PRC2 containing wt EZH2, sequence (O75530 whole entry partner): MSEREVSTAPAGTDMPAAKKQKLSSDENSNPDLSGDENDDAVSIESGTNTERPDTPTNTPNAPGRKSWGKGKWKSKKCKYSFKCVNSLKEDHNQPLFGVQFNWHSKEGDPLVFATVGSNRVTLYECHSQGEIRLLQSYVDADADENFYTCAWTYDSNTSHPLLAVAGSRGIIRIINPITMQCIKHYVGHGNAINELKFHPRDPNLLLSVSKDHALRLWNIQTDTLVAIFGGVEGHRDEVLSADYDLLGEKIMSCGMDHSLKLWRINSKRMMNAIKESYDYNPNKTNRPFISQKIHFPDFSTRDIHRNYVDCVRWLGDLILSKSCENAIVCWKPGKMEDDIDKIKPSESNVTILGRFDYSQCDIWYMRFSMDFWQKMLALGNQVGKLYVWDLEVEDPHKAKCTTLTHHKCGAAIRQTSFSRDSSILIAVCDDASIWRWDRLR
PRC2 containing wt EZH2, sequence (Q15022 whole entry partner): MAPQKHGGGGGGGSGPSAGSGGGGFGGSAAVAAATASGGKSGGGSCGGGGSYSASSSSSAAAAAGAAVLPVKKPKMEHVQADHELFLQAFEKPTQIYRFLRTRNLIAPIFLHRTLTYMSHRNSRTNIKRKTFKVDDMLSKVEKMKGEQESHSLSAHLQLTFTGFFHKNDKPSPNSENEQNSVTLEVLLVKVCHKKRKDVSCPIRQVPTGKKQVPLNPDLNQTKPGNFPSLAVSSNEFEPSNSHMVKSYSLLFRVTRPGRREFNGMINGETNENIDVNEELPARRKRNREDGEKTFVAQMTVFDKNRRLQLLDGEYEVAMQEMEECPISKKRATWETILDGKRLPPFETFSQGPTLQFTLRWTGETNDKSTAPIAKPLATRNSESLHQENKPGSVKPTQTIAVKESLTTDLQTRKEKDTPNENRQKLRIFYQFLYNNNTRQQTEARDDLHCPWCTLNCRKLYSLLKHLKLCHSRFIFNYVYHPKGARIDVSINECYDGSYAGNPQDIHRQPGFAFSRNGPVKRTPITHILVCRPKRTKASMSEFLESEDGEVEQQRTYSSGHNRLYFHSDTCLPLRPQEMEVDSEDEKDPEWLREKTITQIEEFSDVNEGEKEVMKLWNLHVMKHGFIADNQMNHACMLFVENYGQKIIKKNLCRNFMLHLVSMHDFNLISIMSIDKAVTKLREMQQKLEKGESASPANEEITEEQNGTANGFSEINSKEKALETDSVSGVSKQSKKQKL
PRC2 containing wt EZH2, sequence (Q09028 whole entry partner): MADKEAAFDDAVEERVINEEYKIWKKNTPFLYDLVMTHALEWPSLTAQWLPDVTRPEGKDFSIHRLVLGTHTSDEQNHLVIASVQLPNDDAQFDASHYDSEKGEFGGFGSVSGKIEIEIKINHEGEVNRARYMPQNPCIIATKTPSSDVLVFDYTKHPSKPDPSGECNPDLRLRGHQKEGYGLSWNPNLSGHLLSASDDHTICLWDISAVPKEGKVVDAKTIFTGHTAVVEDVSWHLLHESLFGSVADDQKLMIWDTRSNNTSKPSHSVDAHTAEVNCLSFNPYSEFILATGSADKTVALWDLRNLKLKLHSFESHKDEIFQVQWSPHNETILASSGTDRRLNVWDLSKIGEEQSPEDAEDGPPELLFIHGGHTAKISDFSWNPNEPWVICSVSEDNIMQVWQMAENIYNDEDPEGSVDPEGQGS
PRC2 containing wt EZH2, sequence (Q6ZN18 whole entry partner): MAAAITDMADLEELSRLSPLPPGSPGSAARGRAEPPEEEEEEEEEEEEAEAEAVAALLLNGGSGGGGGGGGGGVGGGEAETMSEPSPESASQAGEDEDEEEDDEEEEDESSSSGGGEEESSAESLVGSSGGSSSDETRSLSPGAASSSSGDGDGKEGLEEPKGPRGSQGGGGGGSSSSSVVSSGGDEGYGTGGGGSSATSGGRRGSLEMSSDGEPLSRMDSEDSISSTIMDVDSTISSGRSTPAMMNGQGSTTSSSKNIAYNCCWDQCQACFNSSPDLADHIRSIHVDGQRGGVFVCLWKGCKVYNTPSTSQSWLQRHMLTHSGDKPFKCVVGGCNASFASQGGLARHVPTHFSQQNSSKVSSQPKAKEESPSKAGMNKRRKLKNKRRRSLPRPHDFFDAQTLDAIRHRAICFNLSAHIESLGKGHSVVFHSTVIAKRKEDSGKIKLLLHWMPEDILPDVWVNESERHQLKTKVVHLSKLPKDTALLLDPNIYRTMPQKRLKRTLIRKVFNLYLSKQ

| SMILES | IC50 |
| --- | --- |
| CSc1cc(C)[nH]c(=O)c1CNC(=O)c1c(C)n([C@H](C)C2CCC(N(C)C)CC2)c2ncccc12 (single isomer, unassigned) [51 (isomer 1)] | < 0.5 nM |
| CSc1cc(C)[nH]c(=O)c1CNC(=O)c1c(C)n([C@H](C)C2CCC(N(C)C)CC2)c2ncccc12 (single isomer, unassigned) [51 (isomer 2)] | < 0.5 nM |
| CSc1cc(C)[nH]c(=O)c1CNC(=O)c1c(C)n([C@H](C)C2CCC(NC3COC3)CC2)c2ncccc12 (single isomer, unassigned) [62 (isomer 1)] | < 0.5 nM |
| CSc1cc(C)[nH]c(=O)c1CNC(=O)c1c(C)n([C@H](C)C2CCC(NC3COC3)CC2)c2ncccc12 (single isomer, unassigned) [62 (isomer 2)] | 0.5 to 5 nM |

same assay, conditions: EZH2 (IC50), 30 pM PRC2 containing wt EZH2; 3-5 h pre-incubation

| SMILES | IC50 |
| --- | --- |
| CSc1cc(C)[nH]c(=O)c1CNC(=O)c1c(C)n([C@H](C)C2CCC(O)CC2)c2cc(F)ccc12 (single isomer, unassigned) [44 (isomer 1)] | < 0.5 nM |
| CSc1cc(C)[nH]c(=O)c1CNC(=O)c1c(C)n([C@H](C)C2CCC(O)CC2)c2ncc(Cl)cc12 (single isomer, unassigned) [53 (isomer 1)] | < 0.5 nM |
| CSc1cc(C)[nH]c(=O)c1CNC(=O)c1c(C)n([C@H](C)C2CCC(OC(F)F)CC2)c2ccccc12 (single isomer, unassigned) [60 (isomer 1)] | < 0.5 nM |
| CSc1cc(C)[nH]c(=O)c1CNC(=O)c1c(C)n([C@H](C)C2CCN(C3CC(F)C3)CC2)c2ccccc12 (single isomer, unassigned) [64 (isomer 1)] | < 0.5 nM |
| COCCOC1CCC([C@@H](C)n2c(C)c(C(=O)NCc3c(SC)cc(C)[nH]c3=O)c3ccccc32)CC1 (single isomer, unassigned) [67 (isomer 2)] | < 0.5 nM |
| CSc1cc(C)[nH]c(=O)c1CNC(=O)c1c(C)n([C@H](C)[C@H]2CCN(C3CC3)CC2(F)F)c2ncccc12 (single isomer, unassigned) [70 (isomer 1)] | < 0.5 nM |
| CSc1cc(C)[nH]c(=O)c1CNC(=O)c1c(C)n([C@H](C)[C@@H]2CCN(C3CC3)CC2(F)F)c2ncccc12 (single isomer, unassigned) [70 (isomer 2)] | 0.5 to 5 nM |
| CSc1cc(C)[nH]c(=O)c1CNC(=O)c1c(C)n([C@H](C)C2CCC(N3CCOCC3)CC2)c2ccccc12 (single isomer, unassigned) [75 (isomer 1)] | < 0.5 nM |
| COC1CN(C2CCC([C@@H](C)n3c(C)c(C(=O)NCc4c(SC)cc(C)[nH]c4=O)c4cccnc43)CC2)C1 (single isomer, unassigned) [76 (isomer 1)] | < 0.5 nM |
| COC1CN(C2CCC([C@@H](C)n3c(C)c(C(=O)NCc4c(SC)cc(C)[nH]c4=O)c4cccnc43)CC2)C1 (single isomer, unassigned) [76 (isomer 2)] | 0.5 to 5 nM |

tested on: H3K27me3 mark in HeLa cells (EZH2); test: H3K27me3 Alpha Hela Assay (AlphaLISA); type: cell-based; details: HeLa cells, 72 hrs; listed as 62; read-out: EZH2 Cell H3K27me3 Alpha HeLa (EC50 K27me3)
Description: H3K27me3 Alpha Hela Assay (AlphaLISA). Ten different doses of each test compound (in a series of 3-fold dilutions) were plated in duplicate 384-well tissue culture treated plates (Catalog #6007680; Perkin Elmer, Waltham, Mass.). Hela cells grown in culture were trypsinized and counted using a Countess® cell counter (Catalog #C10281; Life Technologies, Grand Island, N.Y.). Cell were diluted to 67,000 cells per mL in 10% DMEM (Catalog #10569-010 Life Technologies, Grand Island, N.Y.) and 15 μL (1,000 cells) were plated into each well using the Biotek MicroFlo™ Select Dispenser (BioTek Instruments, Inc. Vermont, USA),) of the 384-well plate. Plates were incubated at 37° C./5% CO2 for 72 hrs. One of the duplicate plates was processed for HeLa assay and the other for viability.
5 μL of Cell-Histone Lysis buffer (1×) (Catalog #AL009F1 Perkin Elmer; Waltham, Mass.) per well was added to the plate processed for AlphaLISA and the plate was incubated at RT for 30 minutes on a plate shaker with low speed (Model #4625-Q Thermo Scientific; Waltham, Mass.). Then, 10 μL per well Histone Extraction buffer (catalog #AL009F2; Perkin Elmer; Waltham, Mass.) was added and the plate further incubated at RT for 20 min on plate shaker with low speed. Next, 10 μL of 5× mix of anti-K27me3 acceptor beads plus Biotinylated anti-Histone H3 (C-ter) Antibody (diluted to 3 nM final) (Catalog #AL118 Perkin Elmer; Waltham, Mass.) was added in each well. Dilution of the acceptor beads and anti-Histone H3 was done in 1× Histone Detection buffer (Catalog #AL009F3 Perkin Elmer; Waltham, Mass.) which was produced by diluting the 10× stock provided. The plate was sealed with an aluminum plate sealer and incubated at 23° C. for 60 min. Next, 10 μL 5× solution of Streptavidin Donor beads were added (Catalog #6760002 Perkin Elmer; Waltham, Mass.) (20 μg/mL final in 1× Histone Detection Buffer), =plate was sealed with Aluminum plate sealer and incubated at 23° C. for 30 min. The plates were then read using an EnVision-Alpha Reader (model #2104 Perkin Elmer; Waltham, Mass.).
Data from both assays was analyzed using Genedata (Basel, Switzerland). Data files were imported to Genedata and assay conditions were specified. A unique Analysis ID was created and the data files analysed to measure dose-dependent inhibition of H3K27me3 mark and cell viability respectively. Readout of DMSO wells were used to normalize the data. Resulting curves were fitted using Smart fit application (Genedata; Basel, Switzerland). The data was checked for quality, validated and integrated in excel format using Stardrop (Optibruim, Cambridge, UK).
EC50 values are reported as follows: “A” indicates an EC50 value of less than 10 nM; “B” indicates an EC50 value of 10 nM to 100 nM; “C” indicates an EC50 value of greater than 100 nM; and “ND” is not determined.

| SMILES | EC50 |
| --- | --- |
| CSc1cc(C)[nH]c(=O)c1CNC(=O)c1c(C)n([C@H](C)C2CCC(NC3COC3)CC2)c2ncccc12 (single isomer, unassigned) [62 (isomer 2)] | > 100 nM |

same assay, conditions: HeLa cells, 72 hrs; read-out: EZH2 Cell H3K27me3 Alpha HeLa (EC50 K27me3)

| SMILES | EC50 |
| --- | --- |
| CSc1cc(C)[nH]c(=O)c1CNC(=O)c1c(C)n([C@H](C)C2CCC(N(C)C)CC2)c2ncccc12 (single isomer, unassigned) [51 (isomer 1)] | 10 to 100 nM |
| CSc1cc(C)[nH]c(=O)c1CNC(=O)c1c(C)n([C@H](C)C2CCC(N(C)C)CC2)c2ncccc12 (single isomer, unassigned) [51 (isomer 2)] | > 100 nM |
| CSc1cc(C)[nH]c(=O)c1CNC(=O)c1c(C)n([C@H](C)C2CCC(NC3COC3)CC2)c2ncccc12 (single isomer, unassigned) [62 (isomer 1)] | 10 to 100 nM |
| COCCOC1CCC([C@@H](C)n2c(C)c(C(=O)NCc3c(SC)cc(C)[nH]c3=O)c3ccccc32)CC1 (single isomer, unassigned) [67 (isomer 2)] | < 10 nM |
| COC1CN(C2CCC([C@@H](C)n3c(C)c(C(=O)NCc4c(SC)cc(C)[nH]c4=O)c4cccnc43)CC2)C1 (single isomer, unassigned) [76 (isomer 1)] | < 10 nM |
| COC1CN(C2CCC([C@@H](C)n3c(C)c(C(=O)NCc4c(SC)cc(C)[nH]c4=O)c4cccnc43)CC2)C1 (single isomer, unassigned) [76 (isomer 2)] | > 100 nM |

same assay, conditions: Homo sapiens, HeLa, 72 h, HeLa cells, 72 hrs; read-out: EZH2 Cell H3K27me3 Alpha HeLa (EC50 K27me3)

| SMILES | EC50 |
| --- | --- |
| CSc1cc(C)[nH]c(=O)c1CNC(=O)c1c(C)n([C@H](C)C2CCC(O)CC2)c2cc(F)ccc12 (single isomer, unassigned) [44 (isomer 1)] | < 10 nM |
| CSc1cc(C)[nH]c(=O)c1CNC(=O)c1c(C)n([C@H](C)C2CCC(O)CC2)c2ncc(Cl)cc12 (single isomer, unassigned) [53 (isomer 1)] | 10 to 100 nM |
| CSc1cc(C)[nH]c(=O)c1CNC(=O)c1c(C)n([C@H](C)C2CCC(OC(F)F)CC2)c2ccccc12 (single isomer, unassigned) [60 (isomer 1)] | < 10 nM |
| CSc1cc(C)[nH]c(=O)c1CNC(=O)c1c(C)n([C@H](C)C2CCN(C3CC(F)C3)CC2)c2ccccc12 (single isomer, unassigned) [64 (isomer 1)] | 10 to 100 nM |
| CSc1cc(C)[nH]c(=O)c1CNC(=O)c1c(C)n([C@H](C)[C@H]2CCN(C3CC3)CC2(F)F)c2ncccc12 (single isomer, unassigned) [70 (isomer 1)] | < 10 nM |
| CSc1cc(C)[nH]c(=O)c1CNC(=O)c1c(C)n([C@H](C)[C@@H]2CCN(C3CC3)CC2(F)F)c2ncccc12 (single isomer, unassigned) [70 (isomer 2)] | > 100 nM |
| CSc1cc(C)[nH]c(=O)c1CNC(=O)c1c(C)n([C@H](C)C2CCC(N3CCOCC3)CC2)c2ccccc12 (single isomer, unassigned) [75 (isomer 1)] | 10 to 100 nM |
